Source: patent US20250170122A1, “CERTAIN CHEMICAL ENTITIES, COMPOSITIONS AND METHODS” (Intellikine LLC, priority 2009, published 2025)
Entries after “also recorded” stand apart in the source; their conditions may differ.

Key:
[1] = system: p110δ or p110γ relative to p110α, p110β, DNAPK and/or mTor
Protocol: IC50 values are measured using either a standard TLC assay for lipid kinase activity (described below) or a high-throughput membrane capture assay. Kinase reactions are performed by preparing a reaction mixture containing kinase, inhibitor (2% DMSO final concentration), buffer (25 mM HEPES, pH 7.4, 10 mM MgCl2), and freshly sonicated phosphatidylinositol (100 μg/ml). Reactions are initiated by the addition of ATP containing 10 μCi of γ-32P-ATP to a final concentration 10 or 100 μM and allowed to proceed for 5 minutes at room temperature. For TLC analysis, reactions are then terminated by the addition of 105 μl 1N HCl followed by 160 μl CHCl3:MeOH (1:1). The biphasic mixture is vortexed, briefly centrifuged, and the organic phase is transferred to a new tube using a gel loading pipette tip precoated with CHCl3. This extract is spotted on TLC plates and developed for 3-4 hours in a 65:35 solution of n-propanol:1 M acetic acid. The TLC plates are then dried, exposed to a phosphorimager screen (Storm, Amersham), and quantitated.
Briefly, the assay is a time resolved FRET assay that indirectly measures PIP3 product formed by the activity of a PI3-K. The kinase reaction is performed in a microtitre plate (e.g., a 384 well microtitre plate). The total reaction volume is approximately 20 ul per well. In the first step, each well receives 2 ul of test compound in 20% dimethylsulphoxide resulting in a 2% DMSO final concentration. Next, approximately 14.5 ul of a kinase/PIP2 mixture (diluted in 1× reaction buffer) is added per well for a final concentration of 0.25-0.3 ug/ml kinase and 10 uM PIP2. […] To start the reaction, 3.5 ul of ATP (diluted in 1× reaction buffer) is added per well for a final concentration of 10 uM ATP. The plate is sealed and incubated for 1 hour at room temperature. The reaction is stopped by adding 5 ul of Stop Solution per well and then 5 ul of Detection Mix is added per well. The plate is sealed, incubated for 1 hour at room temperature, and then read on an appropriate plate reader. Data is analyzed and IC50s are generated using GraphPad Prism 5.
DNA-PK can be purchased from Promega and assayed using the DNA-PK Assay System (Promega) according to the manufacturer's instructions.
The cross-activity or lack thereof of one or more compounds of the present invention against mTor can be measured according to any procedures known in the art or methods disclosed below. The compounds described herein can be tested against recombinant mTOR (Invitrogen) in an assay containing 50 mM HEPES, pH 7.5, 1 mM EGTA, 10 mM MgCl2, 2.5 mM, 0.01% Tween, 10 μM ATP (2.5 μCi of μ-32P-ATP), and 3 μg/mL BSA. Rat recombinant PHAS-¼EBP1 (Calbiochem; 2 mg/mL) is used as a substrate. Reactions are terminated by spotting onto nitrocellulose, which is washed with 1 M NaCl/1% phosphoric acid (approximately 6 times, 5-10 minutes each). Sheets are dried and the transferred radioactivity quantitated by phosphorimaging.
Other kits or systems for assaying mTOR activity are commercially available. For instance, one can use Invitrogen's LanthaScreen™ Kinase assay to test the inhibitors of mTOR disclosed herein. This assay is a time resolved FRET platform that measures the phosphorylation of GFP labeled 4EBP1 by mTOR kinase. The kinase reaction is performed in a white 384 well microtitre plate. The total reaction volume is 20 ul per well and the reaction buffer composition is 50 mM HEPES pH7.5, 0.01% Polysorbate 20, 1 mM EGTA, 10 mM MnCl2, and 2 mM DTT.

[2] = system: collagen induced developing arthritis model; experiment: Rat developing type II collagen induced arthritis assay; assay type: in vivo; settings: for increase in ankle diameter over time: dose not stated
Protocol: In order to study the effects of the compounds of the present invention on the autoimmune disease arthritis, a collagen induced developing arthritis model was used. Female Lewis rats were given collagen injections at day 0. Bovine type II collagen was prepared as a 4 mg/ml solution in 0.01 N acetic acid. Equal volumes of collagen and Freund's incomplete adjuvant were emulsified by hand mixing until a bead of the emulsified material held its form in water. Each rodent received a 300 μl injection of the mixture at each injection time spread over three subcutaneous sites on the back.
Oral compound administration began on day 0 and continued through day 16 with vehicle (5% NMP, 85% PEG 400, 10% Solutol) or compounds of the present invention in vehicle or control (e.g. methotrexate) at 12 hour intervals daily. Rats were weighed on days 0, 3, 6, 9-17 and caliper measurements of ankles taken on days 9-17. Final body weights were taken, and then the animals were euthanized on day 17. After euthanization, blood was drawn and hind paws and knees were removed. Blood was further processed for pharmacokinetics experiments as well as an anti-type II collagen antibody ELISA assay. Hind paws were weighed and then with the knees preserved in 10% formalin. The paws and knees were subsequently processed for microcopy. Livers, spleen and thymus were also weighed. Sciatic nerves were prepared for histopathology.
Knee and ankle joints were fixed for 1-2 days and decalcified for 4-5 days. Ankle joints were cut in half longitudinally, knees were cut in half along the frontal plane. Joints were then processed, embedded, sectioned and stained with toluidine blue. Scoring of the joints was done according to the following criteria:
Percent inhibition of paw weight and AUC was calculated using the following formula:
% Inhibition=A−B/A×100 • A=Mean Disease Control—Mean Normal • B=Mean Treated—Mean Normal

[3] = system: adjuvant induced arthritis model; experiment: Adjuvant induced arthritis assay; assay type: in vivo
Protocol: Isoflurane-anesthetized Lewis rats (200-250 g) were implanted with an intrathecal (IT) catheter. After a 6 d recovery period, all animals except those that appeared to have sensory or motor abnormalities (fewer than 5% of the total number) were used for experiments. For IT administration, 10 μl of drug or saline followed by 10 μl of isotonic saline was injected through the catheter.
Lewis rats were immunized at the base of the tail with 0.1 ml of complete Freund's adjuvant (CFA) on day 0 several days after catheter implantation (n=6/group). Drug (e.g. one or more compounds of the present invention or vehicle) treatment was generally started on day 8 and continued daily until day 20. Clinical signs of arthritis generally begin on day 10, and paw swelling was determined every second day by water displacement plethysmometry.

[4] = system: basophilic granulocytes; experiment: Basotest assay; assay type: cell-based; settings: heparinized whole blood; dust mite or grass extract
Protocol: The baseotest assay is performed using Orpegen Pharma Basotest reagent kit. Heparinized whole blood is pre-incubated with test compound or solvent at 37° C. for 20 min. Blood is then incubated with assay kit stimulation buffer (to prime cells for response) followed by allergen (dust mite extract or grass extract) for 20 min. The degranulation process is stopped by incubating the blood samples on ice. The cells are then labeled with anti-IgE-PE to detect basophilic granulocytes, and anti-gp53-FITC to detect gp53 (a glycoprotein expressed on activated basophils). After staining red blood cells are lysed by addition of Lysing Solution. Cells are washed, and analyzed by flow cytometry.

[5] = system: established type II collagen induced arthritis; experiment: Rat established type II collagen induced arthritis assay; assay type: in vivo; settings: oral
Protocol: In order to examine the dose responsive efficacy of the compounds of the present invention in inhibiting the inflammation, cartilage destruction and bone resorption of 10 day established type II collagen induced arthritis in rats, compounds were administered orally daily or twice daily for 6 days.
Female Lewis rats were anesthetized and given collagen injections prepared and administered as described previously on day 0. On day 6, animals were anesthetized and given a second collagen injection. Caliper measurements of normal (pre-disease) right and left ankle joints were performed on day 9. On days 10-11, arthritis typically occurred and rats were randomized into treatment groups. Randomization was performed after ankle joint swelling was obviously established and there was good evidence of bilateral disease.
After an animal was selected for enrollment in the study, treatment was initiated by the oral route. Animals were given vehicle, control (Enbrel) or compound doses, twice daily or once daily (BID or QD respectively). Dosing was administered on days 1-6 using a volume of 2.5 ml/kg (BID) or 5 ml/kg (QD) for oral solutions. Rats were weighed on days 1-7 following establishment of arthritis and caliper measurements f ankles taken every day. Final body weights were taken on day 7 and animals were euthanized.

[6] = system: LPS-induced lung inflammation model; experiment: LPS-induced lung inflammation assay; assay type: in vivo, rats; settings: oral; bronchoalveolar lavage 6 h after intranasal LPS
Protocol: To perform the LPS-induced lung inflammation assay, compounds were dosed orally. A group was dosed with vehicle only and dexamethasone (5 mg/kg) was used in another group as positive control. Pulmonary inflammation was determined 6 h after intranasal instillation of LPS (10 μg). The following parameters were evaluated: total number of leukocytes and number of neutrophils in bronchoalveolar lavage (BAL).

[7] = system: OVA-induced allergic lung inflammation model; experiment: Ovalbumin-induced lung inflammation assay; assay type: in vivo, rats; settings: oral; bronchoalveolar lavage after 4 daily ovalbumin challenges
Protocol: In the ovalbumin-induced lung inflammation assay, compounds were dosed orally. A group was dosed with vehicle only and dexamethasone (5 mg/kg) was used in another group as positive control. Pulmonary inflammation was determined 4 days after 4 consecutive daily intranasal instillation of ovalbumin. Compounds were given by gavage 30 min before each challenge (4 challenges) at the indicated doses. The following parameters were evaluated: Total number of leukocytes and number of eosinophils in bronchoalveolar lavage (BAL).

Structure (SMILES)	selectivity ratio [1]	also measured
[2H]c1nc2c(N[C@@H](C)c3cc4cccc(Cl)c4c(=O)n3C3CC3)ncnc2[nH]1 [Compound 350]	≥ 3	
[2H]c1nc2c(N[C@@H](C)c3cc4cccc(C)c4c(=O)n3-c3ccccc3)ncnc2[nH]1 [Compound 349]	≥ 3	
Nc1ncnc2c1c(-c1cn[nH]c1)nn2Cc1cc2cccc(Cl)c2c(=O)n1-c1cccc(F)c1 [Compound 339]	≥ 3	
C[C@H](Nc1ncnc2c1ncn2C)c1cc2cccc(Cl)c2c(=O)n1-c1ccccc1 [Compound 340]	≥ 3	
C[C@H](Nc1ncnc2[nH]cnc12)c1cc2ncccc2c(=O)n1-c1ccccc1 [Compound 357]	≥ 3	
Cc1ccccc1-n1c(Cn2nc(-c3cn[nH]c3)c3c(N)ncnc32)cc2cccc(Cl)c2c1=O [Compound 336]	≥ 3	
Nc1ncnc2c1c(-c1cn[nH]c1)nn2Cc1cc2cccc(Cl)c2c(=O)n1-c1ccccc1 [Compound 338]	≥ 3	
Cc1csc2ncnc(N[C@@H](C)c3cc4cccc(Cl)c4c(=O)n3-c3ccccc3)c12 [Compound 352]	≥ 3	
C[C@H](Nc1ncnc2ccsc12)c1cc2cccc(Cl)c2c(=O)n1-c1ccccc1 [Compound 344]	≥ 3	
CNc1ncc(C(F)(F)F)c(N[C@@H](C)c2cc3cccc(Cl)c3c(=O)n2-c2ccccc2)n1 [Compound 354]	≥ 3	
C[C@H](Nc1ncnc2[nH]cnc12)c1cc2cccc(F)c2c(=O)n1-c1cccc(F)c1 [Compound 331]	≥ 3	
C[C@H](Nc1ncnc2[nH]c(Cl)nc12)c1cc2cccc(Cl)c2c(=O)n1-c1ccccc1 [Compound 333]	≥ 3	
Cc1cccc2cc([C@H](C)Nc3ncnc4[nH]cnc34)n(-c3ccccc3)c(=O)c12 [compound 196]		increase in ankle diameter over time [2]: reducing the increase in ankle diameter over time
CC(=O)Nc1nc2ccc(-c3nn(Cc4cc5cccc(C)c5c(=O)n4-c4ccccc4C)c4ncnc(N)c34)cc2s1 [Compound 53]		average paw volume increase ([3]; rat, in vivo): dose dependent reduction in the average paw volume increase; toxicity or other adverse reaction as measured by weight loss ([3]; rat, in vivo): does not exhibit toxicity or other adverse reaction; ankle histopathology, all categories ([2]; 60 mg/kg): statistically significant reduction in all categories of ankle histopathology; serum anti-type II collagen levels ([2]; 10, 20, and 60 mg/kg dosage levels): reducing the level of anti-type II collagen antibodies; also recorded: significant reduction; mean ankle diameter increase over time ([2]; 10, 30, and 60 mg/kg at 12 hour intervals, oral, relative to vehicle or methotrexate control): significant reduction in arthritis induced ankle diameter increase over time; ankle histopathology (inflammation, pannus, cartilage damage, bone resorption) ([2]; developing arthritis, oral): improving ankle histopathology; also recorded: significant reduction in one or more categories; knee histopathology ([2]; developing arthritis, oral): dose dependent reduction in knee histopathology; inhibition of allergen induced activation of basophilic granulocytes, active range [4]: sub micromolar range; mean ankle diameter increase over time ([5]; once daily dosage): significant reduction in mean ankle diameter increase over time; mean ankle diameter increase over time ([5]; twice daily dosage): significant reduction in mean ankle diameter increase over time
C[C@H](Nc1ncnc2[nH]cnc12)c1cc2cccc(F)c2c(=O)n1-c1ccccc1 [Compound 330]	≥ 3	
C[C@H](Nc1ncnc2[nH]cnc12)c1cc2cccc(Cl)c2c(=O)n1C1CC1 [compound 270, (S)-3-(1-(9H-purin-6-ylamino)ethyl)-2-cyclopropyl-8-chloro-isoquinolin-1(2H)-one]		increase in ankle diameter over time [2]: reducing the increase in ankle diameter over time
C[C@H](Nc1ncnc2[nH]cnc12)c1cc2cccc(Cl)c2c(=O)n1-c1cccc(F)c1 [Compound 328]	≥ 3	
C[C@H](Nc1ncnc2[nH]cnc12)c1cc2cccc(Cl)c2c(=O)n1-c1ccccc1 [compound 292, (S)-3-(1-(9H-purin-6-ylamino)ethyl)-8-chloro-2-phenylisoquinoline-1(2H)-one]		increase in ankle diameter over time ([3]; dose not stated): reducing the increase in ankle diameter over time; LPS-induced total leukocyte neutrophil influx [6]: inhibiting LPS-induced total leukocyte neutrophil influx; increase in ankle diameter over time [2]: reducing the increase in ankle diameter over time; eosinophil influx [7]: inhibiting eosinophil influx
C[C@H](Nc1ncnc2[nH]cnc12)c1cc2cccc(Cl)c2c(=O)n1-c1ccc(F)cc1 [Compound 329]	≥ 3	
Nc1ncnc2c1c(-c1cn[nH]c1)nn2Cc1cc2cccc(Cl)c2c(=O)n1-c1ccccc1F [Compound 337]	≥ 3	
C[C@H](Nc1ncnc2[nH]cnc12)c1cc2cccc(F)c2c(=O)n1-c1ccc(F)cc1 [Compound 332]	≥ 3	
Cc1cccc2cc([C@H](C)Nc3ncnc4[nH]cnc34)n(C3CC3)c(=O)c12 [compound 200, (S)-3-(1-(9H-purin-6-ylamino)ethyl)-2-cyclopropyl-8-methylisoquinolin-1(2H)-one]		increase in ankle diameter over time [2]: reducing the increase in ankle diameter over time
C[C@H](Nc1ncnc2sccc12)c1cc2cccc(Cl)c2c(=O)n1-c1ccccc1 [Compound 343]	≥ 3	
C[C@H](Nc1nc(N)ncc1C(F)(F)F)c1cc2cccc(Cl)c2c(=O)n1-c1ccccc1 [Compound 346]	≥ 3	
